Source: patent publication US20240293418A1, “COMBINATION THERAPY FOR TREATING CANCER” (Epizyme, Inc., priority 2016, published 2024)
Like-named read-outs stand apart in the source and are kept apart here.

Columns and labels:
U266 = test: 7 day pretreatment + 4-day co-treatment combination model (Cell Titer Glo); conditions: for IC50: read-out: 4-day IC50
Text: (§1) Assay plates were developed for endpoint analysis using Cell Titer Glo to measure ATP content, which was used as an indicator of cell viability. DMSO concentration was kept constant throughout the assay at less than 0.2% v/v.
(§2) Cell lines: The cell lines MI1.S and U266B1 were obtained from American Type Culture Collection (ATCC; Rockville, MD). The cell lines LP-1, L-363 were obtained from Deutsche Sammlung von Mikroorganismen and Zellkulturen (DSMZ; Braunschweig, Germany) and the cell line KMS-28BM was obtained from Japanese Collection of Research Bioresources Cell Bank (JCRB, Osaka Japan). All cells were maintained as instructed by the supplier and cultures were maintained at 37° C. in a humidified atmosphere and 5% CO2.
(§3) Loewe volumes greater than 1 denoted synergy and volumes <−1 denoted antagonism.

LP-1 [1] = test: as above; conditions: for IC50: read-out: 4-day IC50
Text: as §1, §2, §3

KMS-28-BM = test: as above; conditions: for IC50: read-out: 4-day IC50
Experimental: as §1
(§4) All cells were maintained as instructed by the supplier and cultures were maintained at 37° C. in a humidified atmosphere and 5% CO2.
as §3

L-363 = test: as above; conditions: for IC50: read-out: 4-day IC50
Text: as §1, §2, §3

MM1.S [2] = test: as above; conditions: read-out: 4-day IC50
Text: as §1, §2, §3

MOLP-8 [3] = test: as above; conditions: second agent + tazemetostat, MOLP-8 t(11;14)
Experimental: as §1, §4, §3

Granta-519 [4] = test: mantle cell lymphoma 7 day co-treatment model; assay type: cell-based; conditions: for IC50: Homo sapiens, 168 h, second agent alone, 7 day co-treatment model; for Best CI / Bliss Volume / HSA Volume / Loewe Volume / Synergy Score: second agent + tazemetostat, 7 day co-treatment
Granta-519 [5] = test: mantle cell lymphoma 7 day pretreatment + 4-day co-treatment model (Cell Titer Glo)
Text: (§5) Cells were then co-treated in triplicate with a second compound, 3-fold serially diluted for additional 4 days. After this time, plates were developed for endpoint analysis using Cell Titer Glo to measure ATP content, which is used as an indicator of cell viability.
(§6) A Loewe volume greater than 1 denoted synergy. A Loewe volume between −1 and 1 denoted additivity, and a negative Loewe volume of less than −1, denoted antagonism.

Maver-1 = test: as above
Text: as §5, §6

MM1.S [6] = test: 7-day co-treatment combination model (Cell Titer Glo); conditions: second agent + tazemetostat, 7 day co-treatment
Experimental: as §1
(§7) Cell lines: The cell lines MI1.S and U266B1 were obtained from American Type Culture Collection (ATCC; Rockville, MD). […] All cells were maintained as instructed by the supplier and cultures were maintained at 37° C. in a humidified atmosphere and 5% CO2.
as §3

RPMI-8226 = test: as above; conditions: second agent + tazemetostat, 7 day co-treatment
Experimental: as §1, §7, §3

Jeko-1 [7] = test: mantle cell lymphoma 7 day co-treatment model; assay type: cell-based; conditions: for Best CI / Bliss Volume / HSA Volume / Loewe Volume / Synergy Score: second agent + tazemetostat, 7 day co-treatment; for IC50: second agent alone, 7 day co-treatment model
Jeko-1 [8] = test: mantle cell lymphoma 7 day pretreatment + 4-day co-treatment model (Cell Titer Glo); conditions: for IC50: Homo sapiens, JeKo-1, 96 h, read-out: Second agent IC50; for Bliss Volume / HSA Volume / Loewe Volume / Synergy Score: second agent + tazemetostat, 7 day pretreatment + 4-day co-treatment, Jeko-1
Text: as §5, §6

MOLP-8 [9] = test: 7-day co-treatment combination model (Cell Titer Glo); conditions: second agent + tazemetostat; 7-day co-treatment; MOLP-8 t(11;14)
Experimental: as §1, §4, §3

LP-1 [10] = test: as above; conditions: second agent + tazemetostat; 7-day co-treatment; LP-1 t(4;14)
Experimental: as §1, §4, §3

[11] = second agent + tazemetostat, 7 day pretreatment + 4-day co-treatment, U266 t(11;14)
[12] = second agent + tazemetostat, 7 day pretreatment + 4-day co-treatment, LP-1 t(4;14)
[13] = second agent + tazemetostat, 7 day pretreatment + 4-day co-treatment, KMS-28-BM t(4;14)
[14] = second agent + tazemetostat, 7 day pretreatment + 4-day co-treatment, L-363 t(20;22)
[15] = second agent + tazemetostat, 7 day pretreatment + 4-day co-treatment, Granta-519
[16] = second agent + tazemetostat, 7 day pretreatment + 4-day co-treatment, Maver-1

| SMILES | IC50 (U266; Homo sapiens, U-266, 96 h) [µM] | IC50 (LP-1 [1]; Homo sapiens, LP-1, 96 h) [µM] | IC50 (KMS-28-BM; KMS-28BM, 96 h) [µM] | IC50 (L-363; Homo sapiens, L-363, 96 h) [µM] | IC50 (MM1.S [2]; Homo sapiens, MM1.S, 96 h) [µM] | combinatorial effect by Loewe volumes (U266; [11]) | combinatorial effect by Loewe volumes (MOLP-8 [3]) | combinatorial effect by Loewe volumes (LP-1 [1]; [12]) | combinatorial effect by Loewe volumes (KMS-28-BM; [13]) | combinatorial effect by Loewe volumes (L-363; [14]) | other results |
| --- | --- | --- | --- | --- | --- | --- | --- | --- | --- | --- | --- |
| O=C1CCC(N2C(=O)c3ccccc3C2=O)C(=O)N1 (centres unmarked) [Thalidomide, thalidomide] | > 10 | > 10 | > 10 | > 10 | > 10 |  |  |  |  |  |  |
| C[C@]12C=CC(=O)C=C1CC[C@@H]1[C@@H]2[C@@H](O)C[C@@]2(C)[C@H]1CC[C@]2(O)C(=O)CO [Prednisolone, prednisolone] | > 10 | 0.036 | 0.036 | 0.1 | 0.158 | A (Additive) | S (Synergy) | S (Synergy) | S (Synergy) | A (Additive) |  |
| CC(C)C[C@H](NC(=O)CNC(=O)c1cc(Cl)ccc1Cl)B(O)O [Ixazomib, ixazomib] |  |  |  |  |  |  | A (Additive) |  |  |  | combinatorial effect by Loewe volumes (U266): S (key: Antagonism; Synergy; Additive; X: Not Tested); IC50 (U266; single agent, U266 t(11; 14)): 0.0015 µM; combinatorial effect by Loewe volumes (LP-1 [1]): S (key: Antagonism; Synergy; Additive; X: Not Tested); IC50 (LP-1 [1]; single agent, LP-1 t(4; 14)): 0.012 µM; combinatorial effect by Loewe volumes (KMS-28-BM): A (key: Antagonism; Synergy; Additive; X: Not Tested); IC50 (KMS-28-BM; single agent, KMS-28-BM t(4; 14)): 0.019 µM; combinatorial effect by Loewe volumes (L-363): A (key: Antagonism; Synergy; Additive; X: Not Tested); IC50 (L-363; single agent, L-363 t(20; 22)): 0.047 µM; IC50 (MM1.S [2]; single agent, MM1.S t(14; 16)): 0.012 µM |
| CC(C)C[C@H](NC(=O)[C@H](CCc1ccccc1)NC(=O)CN1CCOCC1)C(=O)N[C@@H](Cc1ccccc1)C(=O)N[C@@H](CC(C)C)C(=O)[C@@]1(C)CO1 [Carfilzomib, carfilzomib] | 0.003 | 0.0035 | 0.002 | 0.002 | 0.00107 | S (Synergy) | A (Additive) | S (Synergy) | S (Synergy) | A (Additive) |  |
| C=CC(=O)N1CCC[C@@H](n2nc(-c3ccc(Oc4ccccc4)cc3)c3c(N)ncnc32)C1 [Ibrutinib, ibrutinib] |  |  |  |  |  |  |  |  |  |  | IC50 (Granta-519 [4]): 0.856 µM; Best CI (Granta-519 [4]): 0.38; Bliss Volume (Granta-519 [4]): 0.894; HSA Volume (Granta-519 [4]): 3.86; Loewe Volume (Granta-519 [4]): 4.16; Synergy Score (Granta-519 [4]): 2.26; Loewe volume (Granta-519 [5]; [15]): 5.8; IC50 (Maver-1; Homo sapiens, Maver1, read-out: Second agent IC50): > 3.3 µM; Best CI (Maver-1; [16]): 0.08; Bliss Volume (Maver-1; [16]): 0.804; HSA Volume (Maver-1; [16]): 3.90; Loewe Volume (Maver-1; [16]): 3.76; Loewe volume (Maver-1; [16]): 3.8; Synergy Score (Maver-1; [16]): 2.33 |
| Cc1nc2cccc(N)c2c(=O)n1C1CCC(=O)NC1=O (centres unmarked) [CC-122] |  |  |  |  |  |  |  |  |  |  | Loewe volume (MM1.S [6]): 1.93; Loewe volume (RPMI-8226): 2.29 |
| CC[C@]1(O)C[C@H]2CN(CCc3c([nH]c4ccccc34)[C@@](C(=O)OC)(c3cc4c(cc3OC)N(C=O)[C@H]3[C@@](O)(C(=O)OC)[C@H](OC(C)=O)[C@]5(CC)C=CCN6CC[C@]43[C@@H]65)C2)C1 [Vincristine, vincristine] | 0.0005 | 0.0023 | 0.00115 | 0.001 | 0.001 |  |  |  |  |  |  |
| CO[C@H]1C[C@@H]2CC[C@@H](C)[C@@](O)(O2)C(=O)C(=O)N2CCCC[C@H]2C(=O)O[C@H]([C@H](C)C[C@@H]2CC[C@@H](OCCO)[C@H](OC)C2)CC(=O)[C@H](C)/C=C(\C)[C@@H](O)[C@@H](OC)C(=O)[C@H](C)C[C@H](C)/C=C/C=C/C=C/1C [Everolimus, everolimus] |  |  |  |  |  |  |  |  |  |  | Best CI (Jeko-1 [7]): 1.0; Bliss Volume (Jeko-1 [7]): −0.060; HSA Volume (Jeko-1 [7]): 0.084; Loewe Volume (Jeko-1 [7]): 0.56; Synergy Score (Jeko-1 [7]): 0.4; IC50 (Jeko-1 [7]): 0.0005 µM; Loewe volume (Granta-519 [5]; [15]): 5.1; Loewe volume (Maver-1; [16]): 6.5; IC50 (Jeko-1 [8]): 0.0007 µM; Bliss Volume (Jeko-1 [8]): 1.42; HSA Volume (Jeko-1 [8]): 4.62; Loewe Volume (Jeko-1 [8]): 3.95; Synergy Score (Jeko-1 [8]): 4.03 |
| Nc1cccc2c1CN(C1CCC(=O)NC1=O)C2=O (centres unmarked) [Lenalidomide, lenalidomide] | > 10 | 0.973 | > 10 | 0.379 | 0.305 | S (Synergy) | S (Synergy) | S (Synergy) | S (Synergy) | S (Synergy) | Best CI (Jeko-1 [7]): 0.35; Bliss Volume (Jeko-1 [7]): 1.86; HSA Volume (Jeko-1 [7]): 2.74; Loewe Volume (Jeko-1 [7]): 2.87; Synergy Score (Jeko-1 [7]): 3.68; IC50 (Jeko-1 [7]): 0.872 µM; IC50 (Jeko-1 [8]): 0.902 µM; Bliss Volume (Jeko-1 [8]): 2.67; HSA Volume (Jeko-1 [8]): 4.46; Loewe Volume (Jeko-1 [8]): 4.35; Synergy Score (Jeko-1 [8]): 4.01 |
| O=C(CCCCCCC(=O)Nc1ccccc1)NO [Vorinostat, vorinostat] |  | 0.669 |  |  |  | S (Synergy) | A (Additive) | S (Synergy) | S (Synergy) | A (Additive) |  |
| O=P1(N(CCCl)CCCl)NCCCO1 (centres unmarked) [Cyclophosphomide, cyclophosphamide] | > 10 | 6 | 1.48 | > 10 | 1.18 |  |  |  |  |  |  |
| CC1(C)CCC(CN2CCN(c3ccc(C(=O)NS(=O)(=O)c4ccc(NCC5CCOCC5)c([N+](=O)[O-])c4)c(Oc4cnc5[nH]ccc5c4)c3)CC2)=C(c2ccc(Cl)cc2)C1 [Venetoclax, venetoclax] |  |  |  |  |  |  | A (Additive) | S (Synergy) | S (Synergy) |  | IC50 (Granta-519 [4]): 0.041 µM; Best CI (Granta-519 [4]): 0.43; Bliss Volume (Granta-519 [4]): 1.76; HSA Volume (Granta-519 [4]): 3.06; Loewe Volume (Granta-519 [4]): 2.73; Synergy Score (Granta-519 [4]): 3.82; combinatorial effect by Loewe volumes (MOLP-8 [9]): A (Additive); combinatorial effect by Loewe volumes (LP-1 [10]): S (Synergy); IC50 (Granta-519 [5]; Homo sapiens, Granta-519, read-out: Second agent IC50): 0.058 µM; Best CI (Granta-519 [5]; [15]): 0.09; Bliss Volume (Granta-519 [5]; [15]): 3.95; HSA Volume (Granta-519 [5]; [15]): 7.17; Loewe Volume (Granta-519 [5]; [15]): 6.72; Synergy Score (Granta-519 [5]; [15]): 7.23 |
| COc1cccc2c1C(=O)c1c(O)c3c(c(O)c1C2=O)C[C@@](O)(C(=O)CO)C[C@@H]3O[C@H]1C[C@H](N)[C@H](O)[C@H](C)O1 [Doxorubicin, doxorubicin] | 0.05 | 0.203 | 0.087 | 0.01 | 0.008 | A (Additive) | A (Additive) | S (Synergy) | A (Additive) | A (Additive) |  |
| COc1cc([C@@H]2c3cc4c(cc3[C@@H](O[C@@H]3O[C@@H]5CO[C@@H](C)O[C@H]5[C@H](O)[C@H]3O)[C@H]3COC(=O)[C@H]23)OCO4)cc(OC)c1O [Etoposide, etoposide] | 0.787 | 3 | 0.478 | 0.14 | 0.122 |  |  |  |  |  |  |
| Cn1c(CCCC(=O)O)nc2cc(N(CCCl)CCCl)ccc21 [Bendamustine, bendamustine] | > 10 | > 10 | > 10 | > 10 | > 10 |  |  |  |  |  |  |
| N[C@@H](Cc1ccc(N(CCCl)CCCl)cc1)C(=O)O [Melphalan, melphalan] | > 10 | > 10 | 1.12 | > 10 | 2.94 |  |  |  |  |  |  |
